These results are taken from PubChem BioAssay AID588415 (Sanford-Burnham Center for Chemical Genomics, 2011).

For the test, the target named is glucose-6-phosphate dehydrogenase-6-phosphogluconolactonase (PfGluPho), Plasmodium falciparum 3D7. The experiment in a line: inhibition of P. falciparum G6PD activity – biochemical, fluorescence intensity, SAR follow-up (AID 588415). To be noted: recombinant PfG6PD, resazurin-diaphorase NADPH fluorescence.

Calls of active or inactive are those of the source.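 How the source made its calls: active means IC50 at or below 20 µM; inactive means the rest.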 A value given as a limit tells only on which side of the number the result lay.

With `CC1Cc2ccccc2N1S(=O)(=O)c1nnc(NC(=O)c2cccc(Br)c2)s1` (centres undefined), the IC50 is > 80 µM (inactive). Consider `O=C(Nc1nnc(S(=O)(=O)N2CCCCCC2)s1)c1cccc(Br)c1`, for which the IC50 was 7.35 µM. In the case of `CCN(CC)CCNC(=O)c1ccc2c(c1)NC(=O)/C(=C\c1ccc(OC)c(OC)c1)S2` it was “inactive”; in that of `O=C(Nc1nnc(S(=O)(=O)N2CCCc3ccccc32)s1)c1cccc(F)c1`, > 80 µM (inactive); in that of `CN(CCNC(=O)c1ccc2c(c1)NC(=O)c1ccccc1S2)C1CCCCC1`, “inactive”. In the case of `Cc1cccc(C(=O)Nc2nnc(S(=O)(=O)N3CCCCCC3)s2)c1` it was 8.71 µM; in that of `Cc1cccc(C(=O)Nc2nnc(S(=O)(=O)N3CCOCC3)s2)c1`, 4.17 µM; in that of `CCCN(CCC)CCNC(=O)c1ccc2c(c1)NC(=O)/C(=C\c1ccc(C)cc1)S2`, > 80 µM (inactive). As for `CCN1CCCC1CNC(=O)c1ccc2c(c1)NC(=O)/C(=C/c1ccccc1F)S2` (centres undefined), the IC50 was 1.73 µM. Consider `Cc1ccc(CN2C(=O)c3ccccc3Sc3ccc(C(=O)NCCN(C)C)cc32)cc1`, for which the IC50 entry was “inactive”. Take `CCCN(CCC)CCNC(=O)c1ccc2c(c1)NC(=O)/C(=C/c1ccccc1)S2`: the IC50 was > 80 µM (inactive).

Regarding `CCOc1ccc(C(=O)Nc2nnc(S(=O)(=O)N3CCCCCC3)s2)cc1`, the IC50 is > 80 µM (inactive). On to `CCN(CC)CCNC(=O)c1ccc2c(c1)NC(=O)/C(=C/c1ccccc1)S2`, for which the IC50 is 8.81 µM. As for `CCN1CCCC1CNC(=O)c1ccc2c(c1)N(Cc1ccccc1Cl)C(=O)c1ccccc1S2` (centres undefined), the IC50 was > 80 µM (inactive).

As to `CCN(CC)CCNC(=O)c1ccc2c(c1)N(Cc1ccc(C)cc1)C(=O)c1ccccc1S2`, the IC50 entry is “inactive”. With `COc1ccc(/C=C2/Sc3ccc(C(=O)NCCN4CCCCCC4)cc3NC2=O)cc1`, the IC50 was > 80 µM (inactive). For the compound `O=C(Nc1nnc(S(=O)(=O)N2CCOCC2)s1)c1cccc(F)c1`, the IC50 result is “inactive”.

As for `CCN1CCCC1CNC(=O)c1ccc2c(c1)NC(=O)c1ccccc1S2` (centres undefined), the IC50 is 12.2 µM. In the case of `O=C(Nc1nnc(S(=O)(=O)N2CCCCCC2)s1)c1ccco1` it was > 80 µM (inactive); in that of `Cc1ccccc1C(=O)Nc1nnc(S(=O)(=O)N2CCCc3ccccc32)s1`, > 80 µM (inactive); in that of `O=C1Nc2cc(C(=O)NCCN3CCCCCC3)ccc2S/C1=C/c1ccccc1Cl`, “inactive”. For `O=C(Nc1nnc(S(=O)(=O)N2CCCCCC2)s1)c1ccccc1F`, the IC50 was > 80 µM (inactive). In the case of `CCN(CC)CCNC(=O)c1ccc2c(c1)N(Cc1cc(C)ccc1C)C(=O)c1ccccc1S2` it was > 80 µM (inactive); in that of `O=C1Nc2cc(C(=O)NCCN3CCCCCC3)ccc2S/C1=C/c1ccccc1F`, “inactive”; in that of `Cc1cccc(C(=O)Nc2nnc(S(=O)(=O)N3CCCc4ccccc43)s2)c1`, > 80 µM (inactive).

`COc1cccc(C(=O)Nc2nnc(S(=O)(=O)N3CCCCCC3)s2)c1`: the IC50 was 4.89 µM. In the case of `CCN1CCCC1CNC(=O)c1ccc2c(c1)NC(=O)/C(=C\c1ccccc1Cl)S2` (centres undefined) it was 2.56 µM; in that of `CC1Cc2ccccc2N1S(=O)(=O)c1nnc(NC(=O)c2cccc(F)c2)s1` (centres undefined), > 80 µM (inactive). In the case of `Cc1ccccc1C(=O)Nc1nnc(S(=O)(=O)N2CCCCCC2)s1` it was > 80 µM (inactive).

Turning to `CCC(C)N(CCNC(=O)c1ccc2c(c1)NC(=O)c1ccccc1S2)C1CCCCC1` (centres undefined), the IC50 was 6.36 µM. In the case of `O=C(Nc1nnc(S(=O)(=O)N2CCCCCC2)s1)c1cccc(F)c1` it was > 80 µM (inactive). In the case of `Cc1cccc(/C=C2/Sc3ccc(C(=O)NCCN4CCCC4)cc3NC2=O)c1` it was 11.8 µM; in that of `CCN(CC)CCNC(=O)c1ccc2c(c1)N(Cc1ccccc1Cl)C(=O)c1ccccc1S2`, > 80 µM (inactive). In the case of `CCN(CCNC(=O)c1ccc2c(c1)NC(=O)c1ccccc1S2)c1ccccc1` it was > 80 µM (inactive); in that of `CCN1CCCC1CNC(=O)c1ccc2c(c1)N(Cc1cccc(F)c1)C(=O)c1ccccc1S2` (centres undefined), > 80 µM (inactive). Turning to `COc1cccc(/C=C2/Sc3ccc(C(=O)NCCN4CCCC4)cc3NC2=O)c1`, the IC50 result was “inactive”. In the case of `COc1cccc(/C=C2/Sc3ccc(C(=O)NCCN4CCCCCC4)cc3NC2=O)c1` it was > 80 µM (inactive); in that of `Cc1ccc(C(=O)Nc2nnc(S(=O)(=O)N3CCCc4ccccc43)s2)cc1`, > 80 µM (inactive); in that of `CCN1CCCC1CNC(=O)c1ccc2c(c1)NC(=O)/C(=C\c1ccccc1F)S2` (centres undefined), 1.75 µM. Regarding `CCN(CCNC(=O)c1ccc2c(c1)N(Cc1cc(C)ccc1C)C(=O)c1ccccc1S2)c1ccccc1`, the IC50 was > 80 µM (inactive).

Regarding `CCN(CC)CCNC(=O)c1ccc2c(c1)NC(=O)c1ccccc1S2`, the IC50 entry was “inactive”.

As to `Cc1ccc(C(=O)Nc2nnc(S(=O)(=O)N3CCCCCC3)s2)cc1`, the IC50 was > 80 µM (inactive). In the case of `Cc1cccc(C(=O)Nc2nnc(S(=O)(=O)N3c4ccccc4CC3C)s2)c1` (centres undefined) it was > 80 µM (inactive); in that of `COc1ccc(/C=C2/Sc3ccc(C(=O)NCCN(C)C)cc3NC2=O)cc1`, > 80 µM (inactive); in that of `COc1ccccc1C(=O)Nc1nnc(S(=O)(=O)N2CCCCCC2)s1`, > 80 µM (inactive). Take `O=C(Nc1nnc(S(=O)(=O)N2CCCCCC2)s1)c1ccccc1`: the IC50 entry is “inactive”.

In the case of `COc1ccc(C(=O)Nc2nnc(S(=O)(=O)N3CCCCCC3)s2)cc1`, the IC50 entry is “inactive”. In the case of `CCN(CC)CCNC(=O)c1ccc2c(c1)NC(=O)/C(=C\c1ccccc1F)S2` it was 7.36 µM. In the case of `CCN(CCNC(=O)c1ccc2c(c1)N(CC)C(=O)c1ccccc1S2)c1ccccc1` it was > 80 µM (inactive); in that of `O=C1Nc2cc(C(=O)NCCN3CCCC3)ccc2S/C1=C/c1ccccc1Cl`, 11.1 µM. As for `O=C(Nc1nnc(S(=O)(=O)N2CCCCC2)s1)c1cccc(F)c1`, the IC50 was > 80 µM (inactive).

Take `O=C(Nc1nnc(S(=O)(=O)N2CCCCCC2)s1)C1CCCCC1`: the IC50 is > 80 µM (inactive). On to `Cc1cccc(N2CCN(CCNC(=O)c3ccc4c(c3)NC(=O)c3ccccc3S4)CC2)c1C`, for which the IC50 was > 80 µM (inactive).

Consider `Cc1cccc(C(=O)Nc2nnc(S(=O)(=O)N3CCC(C)CC3)s2)c1`, for which the IC50 was 13 µM. In the case of `CCN1CCCC1CNC(=O)c1ccc2c(c1)N(Cc1ccccc1F)C(=O)c1ccccc1S2` (centres undefined) it was > 80 µM (inactive); in that of `CN(C)CCNC(=O)c1ccc2c(c1)NC(=O)/C(=C\c1cccc(Cl)c1)S2`, “inactive”.

In the case of `CCN(CC)CCNC(=O)c1ccc2c(c1)NC(=O)/C(=C\c1ccccc1Cl)S2`, the IC50 is 16.2 µM. In the case of `COc1ccc(C(=O)Nc2nnc(S(=O)(=O)N3CCCCCC3)s2)cc1OC` it was > 80 µM (inactive); in that of `CCN(CC)CCNC(=O)c1ccc2c(c1)NC(=O)/C(=C\c1ccc(OC)cc1)S2`, “inactive”; in that of `Cc1ccc(C(=O)Nc2nnc(S(=O)(=O)N3c4ccccc4CC3C)s2)cc1` (centres undefined), > 80 µM (inactive). In the case of `O=C(Nc1nnc(S(=O)(=O)N2CCCCCC2)s1)c1ccc(F)cc1`, the IC50 entry is “inactive”. For `CCN1CCCC1CNC(=O)c1ccc2c(c1)N(Cc1ccc(C(F)(F)F)cc1)C(=O)c1ccccc1S2` (centres undefined), the IC50 was > 80 µM (inactive).

Regarding `COc1ccc(/C=C2/Sc3ccc(C(=O)NCCN4CCCC4)cc3NC2=O)cc1`, the IC50 result was “inactive”. In the case of `O=C(Nc1nnc(S(=O)(=O)N2CCCCCC2)s1)c1cccc(Cl)c1` it was 5.6 µM.
